Patent US20260097047A1, “Small molecule inhibitors of the ribosome biogenesis factor NVL2” (Board of Regents, The University of Texas System, priority 2023, published 2026)

Tests used:
[1] = system: p53 and p21 in HCT116 NVL^WT tumors; experiment: Pharmacodynamic study: p53 and p21 in HCT116 NVL^WT xenograft tumors; assay type: in vivo, mouse; settings: 35 mg/kg IP
Procedure: Plasma exposure was dose-dependent up to 35 mg/kg (IP injection) reaching a maximum concentration at 17.86 μM. These levels exceed the anti-proliferative IC99 of MM927 in cells expressing either human or mouse NVL. In a subsequent pharmacodynamic (PD) study, we asked if we could assess on-target NVL inhibition via a subsequent p53 and/or p21 induction in tumor xenografts in mice treated with MM927. We implanted HCT116 NVL^WT and NVL^R403W cells subcutaneously on either flank of the mice and evaluated the levels of p53 and p21 in either tumor at various time points after IP administration of 35 mg/kg of MM927.
Pharmacodynamic study: Five million parental HCT116 cells or HCT116 NVL^R403W in a volume of 0.1 mL were implanted using a subcutaneous injection in the left and right side of four-to-eight-week-old male and female NSG mice, respectively. Tumor volumes were measured every 2 to 4 days with calipers. When the tumor diameter reached 0.5 cm in diameter, mice were dosed with 35 mg/kg MM927 or vehicle formulated as 10% DMSO/10% Kolliphor EL/10% Solutal/70% D5W and administered via the intraperitoneal route. At each time point (0, 3, 6, 12, 24 hours post dose), tumors were harvested and flash frozen for Western blot analysis for p53 and p21 as described.

iHCT116 cells = experiment: Growth inhibition of engineered iHCT116 cells; assay type: cell-based; settings: Homo sapiens
From the text: We recently described an isogenic forward genetic system to rapidly find mutations conferring resistance to compounds with anti-proliferative activity (32). This system uses an engineered colorectal cancer HCT116 cell line (iHCT116) in which the addition of indole acetic acid (IAA) initiates a ubiquitin-mediated degradation of the DNA mismatch repair protein MLH1, thereby providing a mechanism to temporarily increase mutation rates. We applied this strategy to MM017, a dibenzothiazepinone identified in a high-throughput small molecule screen for HCT116 cytotoxicity. […] We exposed barcoded iHCT116 cells, that had previously been cultured either with (Mutagenesis-on) or without IAA (Mutagenesis-off), to increasingly lethal doses of MM017.

cleaved caspase-3 = experiment: Cleaved caspase-3 (apoptosis), HCT116 control and p53 KO cells; assay type: cell-based, human
From the text: The upregulation of p53 and its effector p21 can arrest cell growth or induce cell death through apoptosis. […] Next, we addressed whether cell death was mediated by an apoptotic pathway by assaying for cleaved caspase-3, a bona fide marker of apoptosis.

| Structure (SMILES) | p53 and p21 time course in NVL^WT tumor [1] | p53 protein levels in NVL^WT tumor [1] | IC50 (iHCT116 cells) | cleaved caspase-3 (cleaved caspase-3) |
| --- | --- | --- | --- | --- |
| CC#CCN1C(=O)c2ccc(F)cc2Sc2cc(NC(=O)c3ccc4oc(=O)n(C)c4c3)ccc21 [MM927, N-(10-(But-2-yn-1-yl)-3-fluoro-11-oxo-10,11-dihydrodibenzo[b,f][1,4]thiazepin-7-yl)-3-methyl-2-oxo-2,3-dihydrobenzo[d]oxazole-5-carboxamide] | remained elevated at 12 hours and decreased to basal levels by 24 hours | increased 3 hours after injection |  |  |
| COCCN1C(=O)c2ccccc2Sc2cc(NC(=O)c3ccoc3)ccc21 [MM017] |  |  | 460 nM | substantially reduced in p53 KO cells |
